Data from US10829497B2, “Crystal form II of thienopyridine derivative bisulfate and preparation method therefor and use thereof” (ZHONGRONG KAITE (BEIJING) BIOTECHNOLOGY CO., LTD., priority 2017, dated 2020).
Where two headings read alike, the source gives them in different places.

Description: Stability Study of the Hydrogen Sulfate Crystal Form I and Form II of the Compound of Formula I Under High Temperature and High Humidity Conditions
Setting the hydrogen sulfate crystal form I and form II of the compound of formula I at temperature of 60° C. and high humidity (25° C., relative humidity of 90%±5%) respectively for 10 days. Samples were taken on the 0, 5th and 10th days and determined by high performance liquid chromatography to investigate the changes in impurities.
Chromatographic conditions: Agilent 1100 for high performance liquid chromatography; chromatographic column ULTRON ES-OVM (5 μm, 4.6 mm×150 mm); mobile phase 0.01 mol/L potassium dihydrogen phosphate aqueous solution-acetonitrile (80:20); detection wavelength 220 nm; column temperature 30° C.; flow rate 1.0 mL/min; injection volume 10 μL.
Test method: accurately weighting 5 mg of the test probe, placing it in a 10 mL volumetric flask, adding 1 mL of methanol, dissolving with ultrasound, diluting to the mark with mobile phase and shaking to make a test solution with a concentration of 0.5 mg/mL. Precisely injecting 10 μL of the test solution into the liquid chromatography, recording the chromatogram and calculating the total content of impurities according to peak area normalization method.

Total Impurity Content (peak area %) (High Humidity (25° C., relative humidity of 90%±5%), 0 day, listed as I) | Total Impurity Content (peak area %) (High Humidity (25° C., relative humidity of 90%±5%), 5th day, listed as I) | Total Impurity Content (peak area %) (High Humidity (25° C., relative humidity of 90%±5%), 10th day, listed as I) | Total Impurity Growth Rate (High Humidity (25° C., relative humidity of 90%±5%), 10 days, listed as I) [%] | Total Impurity Content (peak area %) (High Temperature (60° C.), 0 day, listed as I) | Total Impurity Content (peak area %) (High Temperature (60° C.), 5th day, listed as I) | Total Impurity Content (peak area %) (High Temperature (60° C.), 10th day, listed as I) | Total Impurity Growth Rate (High Temperature (60° C.), 10 days, listed as I) [%] | Total Impurity Content (peak area %) (High Humidity (25° C., relative humidity of 90%±5%), 0 day, listed as II) | Total Impurity Content (peak area %) (High Humidity (25° C., relative humidity of 90%±5%), 5th day, listed as II) | Total Impurity Content (peak area %) (High Humidity (25° C., relative humidity of 90%±5%), 10th day, listed as II) | Total Impurity Growth Rate (High Humidity (25° C., relative humidity of 90%±5%), 10 days, listed as II) [%] | Total Impurity Content (peak area %) (High Temperature (60° C.), 0 day, listed as II) | Total Impurity Content (peak area %) (High Temperature (60° C.), 5th day, listed as II) | Total Impurity Content (peak area %) (High Temperature (60° C.), 10th day, listed as II) | Total Impurity Growth Rate (High Temperature (60° C.), 10 days, listed as II) [%] | stability compared with the hydrogen sulfate form I (high temperature and high humidity conditions, 10 days) | SMILES
0.386 | 0.438 | 0.576 | 49.2 | 0.386 | 0.597 | 0.812 | 110 | – | – | – | – | – | – | – | – | – | [2H]C([2H])([2H])OC(=O)[C@H](c1ccccc1Cl)N1CCc2sccc2C1 [Crystal Form I, Methyl-d3 (2S)-2-(2-chlorophenyl)-2-(6,7-dihydrothieno[3,2-c]pyridin-5(4H)-yl)acetate]
– | – | – | – | – | – | – | – | 0.372 | 0.409 | 0.533 | 43.3 | 0.372 | 0.526 | 0.737 | 98.1 | better stability | [2H]C([2H])([2H])OC(=O)[C@H](c1ccccc1Cl)N1CCc2sccc2C1 [Crystal Form II, Methyl-d3 (2S)-2-(2-chlorophenyl)-2-(6,7-dihydrothieno[3,2-c]pyridin-5(4H)-yl)acetate]
